Test results reported in PubChem BioAssay (NCI).
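Five concentrations, 48 hours, 96-well plates. Definition used: TGI = concentration required for complete inhibition of growth.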 Where a SMILES comes first, the peptide text is derived from it. The star is where a group is joined. Boc = CC(C)(C)OC(=O)*; OSu = O=C1CCC(=O)N1O*

Key:
Test in all cases: inhibition of tumour cell growth, NCI panel, 48 h
COLO 205 colon = tested on: COLO 205 colon
HCC-2998 colon = tested on: HCC-2998 colon
OVCAR-3 ovarian = tested on: OVCAR-3 ovarian
OVCAR-8 ovarian = tested on: OVCAR-8 ovarian
UACC-62 melanoma = tested on: UACC-62 melanoma
MALME-3M melanoma = tested on: MALME-3M melanoma
TK-10 renal = tested on: TK-10 renal
OVCAR-4 ovarian = tested on: OVCAR-4 ovarian
T-47D breast = tested on: T-47D breast
KM12 colon = tested on: KM12 colon
HL-60(TB) leukemia = tested on: HL-60(TB) leukemia

Compound | TGI (COLO 205 colon) [µM] | TGI (HCC-2998 colon) [µM] | TGI (OVCAR-3 ovarian) [µM] | TGI (OVCAR-8 ovarian) [µM] | TGI (UACC-62 melanoma) [µM] | TGI (MALME-3M melanoma) [µM] | TGI (TK-10 renal) [µM] | TGI (OVCAR-4 ovarian) [µM] | TGI (T-47D breast) [µM] | TGI (KM12 colon) [µM] | TGI (HL-60(TB) leukemia) [µM]
O=C1CC(O)c2c1csc2Br (configuration not stated) | 59.9 | 44 | 64.4 | 62.4 | 59 | 82.4 | 38.2 | 96.2 | > 100 | 43.3 | –
CC(C)(C)OC(=O)NC(Cc1ccc(O)cc1)C(=O)NC(CCCCN)C(=O)NC(Cc1ccc(O)cc1)C(=O)NC(CCCCN)C(=O)ON1C(=O)CCC1=O (configuration not stated) (Boc-YKYK-OSu; configuration not given here) | > 100 | > 100 | – | > 100 | > 100 | > 100 | > 100 | – | > 100 | > 100 | > 100
Clc1nc(Cl)nc(NC23CC4CC(CC(C4)C2)C3)n1 | 35.5 | 41.2 | 37.7 | 34.9 | 35.1 | 30.5 | 32.6 | 39.2 | 42.6 | 32.2 | 16.5
O=C1CC2C=CC(O)C(C1)C2 (configuration not stated) | > 100 | > 100 | > 100 | > 100 | > 100 | > 100 | > 100 | > 100 | > 100 | > 100 | > 100
COc1ncc(C=C(C#N)C#N)c(OC)n1 | > 100 | – | > 100 | 62 | > 100 | > 100 | > 100 | > 100 | > 100 | > 100 | 49.7
O=C1CC(C(O)CO)CC(=O)N1 (configuration not stated) | – | > 100 | > 100 | > 100 | – | > 100 | > 100 | – | > 100 | > 100 | > 100
C[C@]12OC[C@H](c3ccccc3)N1C(=O)C1[C@H]2CC12SCCS2 (some centres not stated) | > 100 | > 100 | > 100 | > 100 | > 100 | > 100 | > 100 | > 100 | > 100 | > 100 | –
CC[C@@H]1CC[C@@H]2[C@H](CC[C@]3(C)[C@@H](O)CC[C@@H]23)[C@H]1C(=O)O | > 100 | > 100 | > 100 | > 100 | > 100 | > 100 | > 100 | > 100 | > 100 | > 100 | > 100
CC(C)(C)OC(=O)NCCCCC(NC(=O)OCc1ccccc1)C(N)=O (configuration not stated) | > 100 | > 100 | > 100 | > 100 | > 100 | > 100 | > 100 | > 100 | > 100 | > 100 | > 100
Nc1nc(Cl)cc(NCC2(CO)CC(CCc3ccccc3)C2)n1 (configuration not stated) | > 100 | > 100 | > 100 | > 100 | > 100 | > 100 | > 100 | > 100 | > 29.1 | > 100 | > 94.2
[N-]=[N+]=Nc1c(Cl)c(=O)n(-c2ccccc2)c2ccccc12 | 47.1 | 42.7 | 39 | – | 29.4 | 43.9 | – | 34.7 | 28.9 | > 100 | > 100
CC(=O)C(CN1CCCCC1)C(c1ccccc1)c1c(O)c2ccccc2oc1=O (configuration not stated) | > 100 | > 100 | > 100 | > 100 | > 100 | > 100 | > 100 | > 100 | > 100 | > 100 | > 100
CC(C)(C)C(=O)C(CC(=O)c1ccccc1)C(=O)C(C)(C)C | > 100 | > 100 | > 100 | > 100 | – | > 100 | > 100 | > 100 | > 100 | > 100 | > 100
c1cc(-c2cnc(-c3ccc4c(c3)CCCO4)o2)ccn1 | 33.1 | – | 33.5 | 27.6 | 31.7 | 30.6 | 42.1 | 42.3 | 47.2 | – | 21.9
COc1cc(COC(=O)N[C@H](C(=O)O)C(C)(C)C)c([N+](=O)[O-])cc1OC | > 100 | > 100 | > 100 | > 100 | > 100 | > 100 | > 100 | – | > 100 | > 100 | –
Cc1ccc(S(=O)(=O)N2CCN3C(=O)c4ccccc4C32c2ccc(F)cc2)cc1 (configuration not stated) | > 100 | > 100 | > 100 | > 100 | > 100 | > 100 | > 100 | > 100 | > 100 | > 100 | –
CCCCc1c(O)nc(Nc2nc3ccccc3[nH]2)[nH]c1=O | > 100 | – | > 100 | > 100 | > 100 | > 100 | > 100 | > 100 | > 100 | > 100 | > 100
CCOc1ccc(N/C(=C(/C(Cl)=C(/Cl)NCCN)[N+](=O)[O-])n2nnc3ccccc32)cc1 | 32.4 | > 100 | 63.3 | 30.4 | > 100 | 27.6 | – | > 100 | > 100 | > 100 | –
Cc1cc2c(c(C(=O)NCCC(=O)O)c1)Oc1c(cc(C)cc1C(=O)NCCC(=O)O)S2 | > 100 | > 100 | > 100 | > 100 | > 100 | > 100 | > 100 | > 100 | > 100 | > 100 | –
O=c1c2c3ccccc3[nH]c2c2cccc3c2n1CCC3 | > 100 | > 100 | > 100 | > 100 | > 100 | 71.1 | > 100 | – | > 100 | > 100 | –
CC(C)(C)OC(=O)NC(C)(C)C(=O)NCCC(=O)O | > 100 | – | > 100 | > 100 | > 100 | – | > 100 | > 100 | > 100 | > 100 | –

Compound | TGI (COLO 205 colon) [µM] | TGI (HCC-2998 colon) [µM] | TGI (OVCAR-3 ovarian) [µM] | TGI (OVCAR-8 ovarian) [µM] | TGI (UACC-62 melanoma) [µM] | TGI (MALME-3M melanoma) [µM] | TGI (TK-10 renal) [µM] | TGI (OVCAR-4 ovarian) [µM] | TGI (T-47D breast) [µM] | TGI (KM12 colon) [µM] | TGI (HL-60(TB) leukemia) [µM]
Cc1c(/C=N\NC(=S)N2CCN(C(=S)N/N=C\c3c(C)n(C)n(-c4ccccc4)c3=O)CC2)c(=O)n(-c2ccccc2)n1C | > 100 | > 100 | > 100 | – | > 100 | > 100 | 33.9 | > 100 | > 100 | > 100 | –
CC1C(c2cc(C(C)(C)C)c(O)c(C(C)(C)C)c2)c2cc3c(cc2OC1N1CCOCC1)OCO3 (configuration not stated) | > 100 | 33.4 | 35 | 60 | 72.9 | – | 31.2 | – | > 100 | > 100 | –
CCOP(=O)(OCC)[C@H](O)c1ccsc1 | > 100 | > 100 | – | > 100 | > 100 | > 100 | > 100 | > 100 | > 100 | > 100 | –
Cc1cc2c(cc1C)[n+](=O)c(C(=O)C/C(=N/NC(=O)c1ccccc1O)C(=O)Nc1ccccc1C(C)C)c(C)n2[O-] | > 100 | > 100 | > 100 | > 100 | > 100 | > 100 | > 100 | > 100 | – | > 100 | 37.9
COC(=O)C1=C(C(=O)OC)C2OC1C1C2C2(C)C(C)=C(C)C1(C)S2=O (configuration not stated) | 13.8 | 38.3 | 25.5 | > 100 | 26.1 | 20.9 | 29.8 | 24.6 | 22.2 | 45.4 | –
CCCCN(CC)c1nc(C)nc2c1c(C)c(C)n2-c1c(C)cc(C)cc1C | 32.6 | – | 26.6 | 28.5 | – | 29.6 | 31.1 | 37.9 | 25.4 | 36.3 | 19.3
COc1cc2c(cc1OCCCCCOc1cc3c(cc1OC)C(=O)N1CCC[C@H]1C(=O)N3)N=C[C@@H]1CCCN1C2=O | 0.0509 | 20.9 | 0.575 | 31.5 | 0.193 | – | 0.253 | 0.716 | > 100 | 37.1 | 1.51
COc1ccc(-c2c(C#N)c(N)n(C3OC(CO)C(O)C(O)C3O)c(=S)c2C#N)cc1 (configuration not stated) | – | > 100 | > 100 | > 100 | > 100 | > 100 | > 100 | > 100 | > 100 | > 100 | > 100
O=C1O[C@@H](c2ccccc2)C[C@@H]1CN1CCOCC1 | > 100 | > 100 | > 100 | > 100 | > 100 | > 100 | > 100 | > 100 | – | > 100 | > 100
O=c1oc2ccccc2c(O)c1C(c1cc(OCc2ccccc2)cc(OCc2ccccc2)c1)c1c(O)c2ccccc2oc1=O | 33.8 | 11.9 | 35 | > 44.5 | 15.7 | – | 33.4 | 68.4 | 38.1 | 14.7 | –
Cc1c(S(=O)(=O)c2ccccc2)c(N)n(Cc2ccccc2)c1C | > 100 | > 100 | > 100 | > 100 | > 100 | > 100 | > 100 | > 100 | – | > 100 | > 100
C=CC1=CSNN1 | > 100 | > 100 | > 100 | > 100 | > 100 | > 100 | > 100 | > 100 | – | > 100 | > 100
O=C(Cc1nc2ccc(C(=O)c3ccccc3)cc2[nH]c1=O)C(=O)Nc1ccc(Br)cc1 | – | – | > 100 | > 100 | > 100 | > 100 | > 100 | > 100 | > 100 | > 100 | > 100
Oc1ccccc1C(c1cc2c(cc1O)OCO2)N1CCOCC1 (configuration not stated) | 34.8 | 33.9 | 31.6 | 44.7 | 32.3 | 32.2 | – | – | 33.8 | 43 | 4.27
N#Cc1c(N)[nH]c(=S)c(C#N)c1-c1cccc(Cl)c1 | 40.9 | 35.6 | > 100 | > 100 | > 100 | > 100 | > 100 | > 100 | – | > 100 | 65.2
c1ccc([P+](CCNCCNCC[P+](c2ccccc2)(c2ccccc2)c2ccccc2)(c2ccccc2)c2ccccc2)cc1 | > 100 | > 100 | > 100 | > 100 | > 100 | – | > 100 | > 100 | > 100 | > 100 | –
O=C(/C(=C(/Br)I)c1ccccc1)c1ccccc1 | 36.5 | 30.1 | 42 | 48.3 | 34.4 | 33.2 | 69.1 | – | 59.8 | 38 | > 100
N#CCCN(c1ccc(C=Nc2cccc([N+](=O)[O-])c2)cc1)S(=O)(=O)c1ccccc1 | > 100 | > 100 | > 100 | > 100 | > 100 | > 100 | > 100 | > 100 | – | > 100 | > 100
CO[C@@H](C(=O)OC1C=CC2(CC1)C(=O)N(C)c1ccccc12)c1ccccc1 (some centres not stated) | > 100 | > 100 | > 100 | > 100 | > 100 | – | > 100 | > 100 | > 100 | > 100 | 94
Cc1sc2nc3n(c(=O)c2c1C)N=CN(c1ccccc1)C3 | > 100 | > 100 | > 100 | > 100 | > 100 | > 100 | > 100 | > 100 | > 100 | > 100 | –
CCOc1ccc(NC(=O)CC2Sc3ccccc3NC2=O)cc1 (configuration not stated) | > 100 | > 100 | > 100 | 42.9 | > 100 | > 100 | > 100 | 39.8 | – | 95.2 | > 100
